Reference: the pKa sets of Baltruschat and Czodrowski (2020)

Settings: acidic group

| Compound | pKa |
| --- | --- |
| Cc1ccc(C(=S)Nc2ccc(Br)cc2)cc1 | 10.8 |
| N#CC1C=CN(Cc2cccc(F)c2)C=C1C(N)=O (configuration not stated) | 0.68 |
| O=[N+]([O-])c1ccc2cc(O)ccc2c1 | 7.69 |
| O=C(O)C1CCCC1 | 4.99 |
| COc1ccc([C@H]2C[C@@H]2C(=O)O)cc1 | 4.62 |
| CC(C)C[NH2+]CC(=O)O | 2.35 |
| CC[NH+](CC)Cc1cc([N+](=O)[O-])ccc1O | 5.75 |
| O=S(=O)([O-])c1ccc(O)c2cn[nH]c12 | 7.6 |
| N#CC(C#N)Cc1ccc([N+](=O)[O-])cc1 | 10.9 |
| [NH3+]C(Cc1ccc[nH+]c1)C(=O)O (configuration not stated) | 1.69 |
| C[N+](C)(C)/N=C(/O)c1ccccc1 | 4.29 |
| CN(CCC[NH+](C)C)C(=O)/C=N/O | 8.68 |
| COc1ccc(C(=S)Nc2ccc(Cl)c(Cl)c2)cc1 | 10.1 |
| NC(=O)c1cc(-c2ccccc2)nnc1NCCN1CCOCC1 | 6.85 |
| Cc1cccc(C(C)C)c1O | 10.8 |
| O=c1[nH]ccc2nnnn12 | 6.95 |
| COc1ccc(C(=O)O)c(C)c1 | 4.54 |
| [NH3+]c1cccc(C(=O)O)c1 | 3.09 |
| O=C1CC(Sc2ccc([N+](=O)[O-])cc2)N1 (configuration not stated) | 13 |

| Compound | pKa |
| --- | --- |
| Cc1c(Cl)c([N+](=O)[O-])cc2c1nnn2O | 3.1 |
| C[NH+](C)CCCCCNC(=O)/C=N/O | 8.88 |
| CCP(=O)(CC)CC(C)=O | 11.9 |
| CC(=O)CCCC(=O)O | 4.66 |
| CN(C)c1ncnc2[nH]ncc12 | 11 |
| O=C(O[C@H]1O[C@@H](C(=O)O)[C@H](O)[C@@H](O)[C@@H]1O)c1ccccc1 | 2.85 |
| [O-]\N=C1/CCCC(=N\O)/C1=N/[O-] | 12.2 |
| COc1ccccc1/C=N/O | 10.9 |
| CC(C)(C(=O)O)C(C(N)=O)c1ccccc1 (configuration not stated) | 4.8 |
| C/C(=N\O)C(=O)c1ccccc1 | 9.25 |
| COc1cccc(/C=C/C(=O)O)c1 | 4.38 |
| Nc1nccc2c1[nH+]cn2CCOCP(=O)([O-])O | 6.56 |
| C=CCOc1ccc(C(=O)O)cc1 | 4.45 |
| Oc1ccccc1C1CCNCCNCCCNCCN1 (configuration not stated) | 10.8 |
| CC(=O)[C@H]1CC=CC[C@@H]1C(=O)O | 4.4 |
| Oc1[nH]c2ccccc2[nH+]1 | -1.7 |
| CC(C)=C(C(N)=O)C(=O)O | 3.95 |
| COC(=O)CS | 7.57 |

Same assay, conditions: basic group

| Compound | pKa |
| --- | --- |
| CSc1nc(C)cc(=O)n1C | 0.9 |
| CCCCCCCCCCCCN(CC(C)O)CC(O)CC (configuration not stated) | 6.2 |
| Nc1cccc2ccc3ncccc3c12 | 5.03 |
| CC(=O)Nc1cccc2nc3ccccc3cc12 | 4.4 |
| Nc1ccc2cncnc2c1 | 4.6 |
| Cc1cn(C)nc1C | 3.56 |
| COc1cc(O)ccc1C(=N)c1ccccc1 | 5.99 |
| Nc1ccc(CC(=O)[O-])cc1 | 5.2 |
| C[NH+]1CCn2c(nc3ccccc32)C1 | 2.55 |
| CC1=CCCCN1C | 11.4 |
| O=C([O-])CSc1nc2cc3c(cc2[nH]1)CCCC3 | 5.2 |
| Nc1nc2cc3c(cc2[nH]1)CCCC3 | 7.69 |
| CC[NH+](CC)CC(C)Nc1c2ccc(Cl)cc2nc2ccc(OC)cc12 (configuration not stated) | 7.15 |
| Nc1ccnc2c([O-])cccc12 | 10.7 |
| CC(=O)Nc1ccc(N)cc1 | 4.46 |
| Cn1ccnc1-c1ccccn1 | 5.7 |
| CCCCCCCCCCCCCCCCCN | 10.6 |
| CN(C)c1ncnc2[nH]ncc12 | 4.53 |
| CCCNC(C)C | 11 |
| Nc1ncc(-c2ccccc2)s1 | 4.9 |
| CN(C)CC(=O)[O-] | 9.81 |
| CCCCCCCCCCCCCCCCN(CC(C)O)CC(C)O (configuration not stated) | 9.19 |
| Nc1nc(N)c2[nH]c(N)[nH+]c2n1 | 2.41 |
| Nc1nc2ccccc2[nH]1 | 7.49 |
| Oc1ccc(Cl)cc1CN1CCCC1 | 11.7 |
| CNCCc1ccccc1 | 10.2 |
| COc1ccccc1C(=N)c1ccccc1 | 7.29 |
| O=C([O-])c1cccc2cccnc12 | 6.99 |
| Nc1ccc(Cc2ccc(N)cc2)cc1 | 5.1 |
| Nc1cccc2nnn([C@@H]3C[C@@H](O)[C@H](CO)O3)c12 | 1.8 |
